# Measurements reported in US4083987A, “4-Imino-1,3-diazabicyclo-(3.1.0)-hexan-2-one as a cancerostat and immuno-stimulant” (Boehringer Mannheim GmbH, priority 1975, dated 1978).
# Legend:
# [1] = system: antibody-forming spleen cells; assay: Number of antibody-forming spleen cells by Jerne's method after intravenous administration; assay type: in vivo, mice; details: three days; for number of antibody-forming spleen cells: mice immunized with sheep erythrocytes, control 4,600; for antibody-forming spleen cells, % of the control: mice
# Protocol: 20 male white mice with a body weight of 20 to 25 g were each immunized with 1 ml preserved sheep erythrocytes (1 ml contains 5 × 10^8 erythrocytes). On the same day, 4-imino-1,3-diazabicyclo[3.1.0]hexan-2-oneor a comparative active material, dissolved in 5 ml physiological saline/kg. mouse body weight, were administered intravenously. For control purposes, 20 animals were also immunized with 1 ml sheep erythrocytes and treated with 5 ml/kg physiological saline. Three days after administration, the spleens of the animals were removed under sterile conditions and the number of antibody-forming spleen cells determined according to Jerne's technique. The individual values were determined.
# leukocytes = assay: Immunity-stimulating action: corpuscular blood components (leukocytes, lymphocytes, erythrocytes) after a single intravenous administration; assay type: in vivo, Sprague-Dawley rats; details: for number of leukocytes/mm^3: third day, control 7,300
# Protocol: The active material, dissolved in 5 ml physiological saline, was administered intravenously into a vein in the tails of 8 Sprague-Dawley rats with an average body weight of 200 to 250 g. As controls, there were used 8 rats which were only treated with 5 ml physiological saline per kg. body weight. In the following days, 1 to 2 drops of blood were taken from a tail vein and the corpuscular blood components determined. The average values were determined statistically from the 8 values of the individual animals.
# [2] = Acute toxicity (LD50), rats; details: rat, in vivo, single intravenous dose
# [3] = Acute toxicity (LD50), mice; details: mouse, in vivo, po
# Walker sarcoma 256 = assay: Cancerostatic effectiveness: inhibition of tumor growth of Walker sarcoma 256 after a single administration; assay type: in vivo, Sprague-Dawley rats; details: for % inhibition of the growth of Walker sarcoma 256: single administration, tumor weight after 10 days
# Protocol: Sprague-Dawley rats with a body weight of 80 to 120 g and an age of 6 to 8 weeks were subcutaneously inoculated in the neck with tumor cells. In each case, there was used 0.1 ml of an aqueous suspension of about 10^6 tumor cells of the Walker sarcoma 256 (solid, rat).
# 4-Imino-1,3-diazabicyclo[3.1.0]hexan-2-one was dissolved in physiological saline solution (in each case, the desired amount in 5 ml solution/kg body weight of experimental animal). 6 Hours after inoculation of the animals, these solutions were administered intravenously or orally by means of a stomach tube. The control animals received 5 ml/kg body weight of physiological saline. 20 experimental animals and 20 control animals were used per experiment. The animals were sacrificed with ether after 10 days, the tumors extirpated and the weight of the tumors of the control group compared with those of the experimental group.
# Stability = assay type: physicochemical
# in vivo = details: mouse, iv
# [4] = Solubility in water, physiological saline and aqueous alkali metal hydroxide solutions; assay type: physicochemical
# [5] = single intravenous, rats, in words
compound,measurement,setting,value
"N=C1NC(=O)N2CC12 (centres unmarked) [4-imino-1,3-diazabicyclo-[3.1.0]hexan-2-one]",number of antibody-forming spleen cells,[1]; 2.5 mg/kg intravenous,"23,000 spleen cells"
same,"antibody-forming spleen cells, % of the control",[1]; 2.5 mg/kg intravenous,500 % of the control
same,number of leukocytes/mm^3,"leukocytes; 2 mg/kg rat, single intravenous","10,300 leukocytes/mm^3"
same,number of leukocytes/mm^3,"leukocytes; 5 mg/kg rat, single intravenous","9,800 leukocytes/mm^3"
same,number of leukocytes/mm^3,"leukocytes; 10 mg/kg rat, single intravenous","10,800 leukocytes/mm^3"
same,number of leukocytes/mm^3,"leukocytes; 20 mg/kg rat, single intravenous","12,300 leukocytes/mm^3"
same,number of leukocytes/mm^3,"leukocytes; 40 mg/kg rat, single intravenous","10,800 leukocytes/mm^3"
same,number of leukocytes/mm^3,"leukocytes; 75 mg/kg rat, single intravenous","11,800 leukocytes/mm^3"
same,number of leukocytes/mm^3,"leukocytes; 150 mg/kg rat, single intravenous","8,000 leukocytes/mm^3"
same,number of leukocytes/mm^3,"leukocytes; 400 mg/kg rat, single intravenous","6,500 leukocytes/mm^3"
same,dosage necessary for immunity stimulation,"leukocytes; deduced from the experiments, all at once or in several doses",1 to 50 mg/kg body weight
same,time after which the effect slowly decreases,leukocytes; immunity stimulation,about 2 weeks
same,number of leukocytes,leukocytes; [5],increased considerably
same,percentage proportion of the lymphocytes,leukocytes; [5],increased
same,number of erythrocytes,"leukocytes; single intravenous, rats, whole experimental period",did not change significantly
same,time until the values of the control animals were again reached,"leukocytes; single intravenous, rats, only after the expiry of",20 to 25 days
same,LD50,[2],660 mg/kg
same,LD50,[3],> 4000 mg/kg
same,tumor growth,Walker sarcoma 256; intravenous and oral administration,significantly inhibited
same,% inhibition of the growth of Walker sarcoma 256,"Walker sarcoma 256; intravenous, 0.1 mg/kg",7.5%
same,% inhibition of the growth of Walker sarcoma 256,"Walker sarcoma 256; intravenous, 1.0 mg/kg",17.5%
same,% inhibition of the growth of Walker sarcoma 256,"Walker sarcoma 256; intravenous, 10.0 mg/kg",49.5%
same,% inhibition of the growth of Walker sarcoma 256,"Walker sarcoma 256; intravenous, 100.0 mg/kg",31.0%
same,% inhibition of the growth of Walker sarcoma 256,"Walker sarcoma 256; intravenous, 200.0 mg/kg",39.5%
same,% inhibition of the growth of Walker sarcoma 256,"Walker sarcoma 256; oral, 5.0 mg/kg",20.0%
same,% inhibition of the growth of Walker sarcoma 256,"Walker sarcoma 256; oral, 125.0 mg/kg",62.0%
same,acid stability,Stability; acid,acid labile
same,stability in dry form,Stability; dry form,stable in dry form
same,LD50,in vivo,750 mg/kg
same,water solubility,[4],good water solubility
same,solubility,[4]; physiological saline and aqueous alkali metal hydroxide solutions,very readily soluble
O=P1(N(CCCl)CCCl)NCCCO1 (centres unmarked) [cyclophosphamide],number of antibody-forming spleen cells,[1]; 125.0 mg/kg intravenous,460 spleen cells
same,"antibody-forming spleen cells, % of the control",[1]; 125.0 mg/kg intravenous,10 % of the control
phytohaemagglutinin,number of antibody-forming spleen cells,[1]; 500.0 mg/kg intravenous,"1,400 spleen cells"
same,"antibody-forming spleen cells, % of the control",[1]; 500.0 mg/kg intravenous,30 % of the control
